Here are results for ten compounds from ChEMBL document CHEMBL3785012, “Cell-penetrating conjugates of pentaglutamylated methotrexate as potential anticancer drugs against resistant tumor cells” (Eur J Med Chem, 2016).

Series [1] has as its system MDA-MB-231. Description: Cytostatic activity against human MDA-MB-231 cells preincubated for 3 hrs followed by serum treatment for 72 hrs measured on day 4 by MTT assay. Format: functional, cell-based. In general terms: Formazan colour is commonly taken as a measure of viable cells.
Series [2] concerns MCF7. Briefly: Cytostatic activity against human MCF7 cells preincubated for 3 hrs followed by serum treatment for 72 hrs measured on day 4 by MTT assay. Format: functional, cell-based.
For series [3], the system named is MDA-MB-231. Briefly: Drug uptake in human MDA-MB-231 cells at 1 to 10 uM preincubated for 90 mins followed by compound wash out and subsequent trypsin addition for 10 mins by 5 (6)-carboxy-fluorescein based flow cytometric analysis. Type of series: ADME, cell-based. The conditions noted are these: mda-mb-231, 10 min. A general note: A flow cytometer gives signals particle by particle.

The subject of series [4] is MCF7. Briefly: Drug uptake in human MCF7 cells at 1 to 10 uM preincubated for 90 mins followed by compound wash out and subsequent trypsin addition for 10 mins by 5 (6)-carboxy-fluorescein based flow cytometric analysis. Format: ADME, cell-based. To be noted: mcf7, 10 min.
For series [5], the system named is MCF7. Description: Drug uptake in human MCF7 cells at 1 uM preincubated for 90 mins followed by compound wash out and subsequent trypsin addition for 10 mins by 5 (6)-carboxy-fluorescein based flow cytometric analysis. Type of series: ADME, cell-based. To be noted: mcf7, 10 min.
The subject of series [6] is MCF7. Description: Drug uptake in human MCF7 cells at 5 uM preincubated for 90 mins followed by compound wash out and subsequent trypsin addition for 10 mins by 5 (6)-carboxy-fluorescein based flow cytometric analysis. Type of series: ADME, cell-based. To be noted: mcf7, 10 min.
For series [7], the system named is MCF7. Briefly: Drug uptake in human MCF7 cells at 10 uM preincubated for 90 mins followed by compound wash out and subsequent trypsin addition for 10 mins by 5 (6)-carboxy-fluorescein based flow cytometric analysis. Type of series: ADME, cell-based. To be noted: mcf7, 10 min.

Each structure is given as a SMILES string. pIC50: −log10 of the molar value. Residues, ends and D or L forms follow the SMILES beside them. *: point of attachment. DAMPA = CN(Cc1cnc2nc(N)nc(N)c2n1)c1ccc(C(=O)*)cc1

Take `CC[C@H](C)[C@H](NC(=O)[C@H](CCCCN)NC(=O)[C@@H](NC(=O)[C@H](CCC(N)=O)NC(=O)[C@H](CCCNC(=N)N)NC(=O)CNC(=O)[C@H](CC(C)C)NC(=O)[C@H](Cc1ccccc1)NC(=O)CNC(=O)[C@H](CCC(=O)O)NC(=O)[C@H](CCC(=O)O)NC(=O)[C@H](CCC(=O)O)NC(=O)[C@H](CCC(=O)O)NC(=O)[C@H](CCC(=O)O)NC(=O)[C@H](CCC(=O)O)NC(=O)c1ccc(N(C)Cc2cnc3nc(N)nc(N)c3n2)cc1)[C@@H](C)CC)C(=O)N[C@@H](Cc1c[nH]c2ccccc12)C(=O)N[C@@H](Cc1ccccc1)C(=O)N[C@@H](CCC(N)=O)C(=O)N[C@@H](CC(N)=O)C(=O)N[C@@H](CCCNC(=N)N)C(=O)N[C@@H](CCCNC(=N)N)C(=O)N[C@@H](CCCCN)C(=O)N[C@@H](Cc1c[nH]c2ccccc12)C(=O)N[C@@H](CCCCN)C(=O)N[C@@H](CCCCN)C(=O)O` ({DAMPA}-EEEEEEGFLGRQIKIWFQNRRKWKK-OH): the negative-log IC50 (pIC50) (as a rule, the negative decadic logarithm of the IC50, by convention in mol/L) in series [1] is 6.40; in series [2], 6.52. For the same compound, the Drug uptake entry in series [3] and in series [4] was “Active” throughout.
Consider `CC[C@H](C)[C@H](NC(=O)[C@H](CCCCN)NC(=O)[C@@H](NC(=O)[C@H](CCC(N)=O)NC(=O)[C@H](CCCNC(=N)N)NC(=O)CNC(=O)[C@H](CC(C)C)NC(=O)[C@H](Cc1ccccc1)NC(=O)CNC(=O)[C@H](CCC(=O)O)NC(=O)c1ccc(N(C)Cc2cnc3nc(N)nc(N)c3n2)cc1)[C@@H](C)CC)C(=O)N[C@@H](Cc1c[nH]c2ccccc12)C(=O)N[C@@H](Cc1ccccc1)C(=O)N[C@@H](CCC(N)=O)C(=O)N[C@@H](CC(N)=O)C(=O)N[C@@H](CCCNC(=N)N)C(=O)N[C@@H](CCCNC(=N)N)C(=O)N[C@@H](CCCCN)C(=O)N[C@@H](Cc1c[nH]c2ccccc12)C(=O)N[C@@H](CCCCN)C(=O)N[C@@H](CCCCN)C(=O)O` ({DAMPA}-EGFLGRQIKIWFQNRRKWKK-OH), for which the negative-log IC50 (pIC50) in series [1] was 5.26; in series [2], 4.86. Also, the Drug uptake result in series [3] and in series [4] was “Active” each time.
On to `CC[C@H](C)[C@H](NC(=O)[C@H](CCCCN)NC(=O)[C@@H](NC(=O)[C@H](CCC(N)=O)NC(=O)[C@H](CCCNC(=N)N)NC(=O)[C@H](CCC(=O)O)NC(=O)[C@H](CCC(=O)O)NC(=O)[C@H](CCC(=O)O)NC(=O)[C@H](CCC(=O)O)NC(=O)[C@H](CCC(=O)O)NC(=O)[C@H](CCC(=O)O)NC(=O)c1ccc(N(C)Cc2cnc3nc(N)nc(N)c3n2)cc1)[C@@H](C)CC)C(=O)N[C@@H](Cc1c[nH]c2ccccc12)C(=O)N[C@@H](Cc1ccccc1)C(=O)N[C@@H](CCC(N)=O)C(=O)N[C@@H](CC(N)=O)C(=O)N[C@@H](CCCNC(=N)N)C(=O)N[C@@H](CCCNC(=N)N)C(=O)N[C@@H](CCCCN)C(=O)N[C@@H](Cc1c[nH]c2ccccc12)C(=O)N[C@@H](CCCCN)C(=O)N[C@@H](CCCCN)C(=O)O` ({DAMPA}-EEEEEERQIKIWFQNRRKWKK-OH), for which the negative-log IC50 (pIC50) is 7.00 in series [1] and below 4.00 in series [2]. For the same compound, the Drug uptake result in series [3] and in series [4] was “Active” throughout.
For the compound `CC[C@H](C)[C@H](NC(=O)[C@H](CCCCN)NC(=O)[C@@H](NC(=O)[C@H](CCC(N)=O)NC(=O)[C@H](CCCNC(=N)N)NC(=O)[C@H](CCC(=O)O)NC(=O)c1ccc(N(C)Cc2cnc3nc(N)nc(N)c3n2)cc1)[C@@H](C)CC)C(=O)N[C@@H](Cc1c[nH]c2ccccc12)C(=O)N[C@@H](Cc1ccccc1)C(=O)N[C@@H](CCC(N)=O)C(=O)N[C@@H](CC(N)=O)C(=O)N[C@@H](CCCNC(=N)N)C(=O)N[C@@H](CCCNC(=N)N)C(=O)N[C@@H](CCCCN)C(=O)N[C@@H](Cc1c[nH]c2ccccc12)C(=O)N[C@@H](CCCCN)C(=O)N[C@@H](CCCCN)C(=O)O` ({DAMPA}-ERQIKIWFQNRRKWKK-OH), the pIC50 in series [1] is 4.89; in series [2], 4.40.
`CN(Cc1cnc2nc(N)nc(N)c2n1)c1ccc(C(=O)N[C@@H](CCC(=O)O)C(=O)O)cc1` [METHOTREXATE]: the pIC50 is below 4.00 in series [1] and 6.10 in series [2].
The matching figures for `CN(Cc1cnc2nc(N)nc(N)c2n1)c1ccc(C(=O)N[C@@H](CCC(=O)O)C(=O)N[C@@H](CCCNC(=N)N)C(=O)N[C@@H](CCCNC(=N)N)C(=O)N[C@@H](CCCNC(=N)N)C(=O)N[C@@H](CCCNC(=N)N)C(=O)N[C@@H](CCCNC(=N)N)C(=O)N[C@@H](CCCNC(=N)N)C(=O)N[C@@H](CCCNC(=N)N)C(=O)N[C@@H](CCCNC(=N)N)C(=O)O)cc1`: 4.00 and below 4.00.
For `CC(C)C[C@H](NC(=O)[C@H](Cc1ccccc1)NC(=O)CNC(=O)[C@H](CCC(=O)O)NC(=O)[C@H](CCC(=O)O)NC(=O)[C@H](CCC(=O)O)NC(=O)[C@H](CCC(=O)O)NC(=O)[C@H](CCC(=O)O)NC(=O)[C@H](CCC(=O)O)NC(=O)c1ccc(N(C)Cc2cnc3nc(N)nc(N)c3n2)cc1)C(=O)NCC(=O)N[C@@H](CCCNC(=N)N)C(=O)N[C@@H](CCCNC(=N)N)C(=O)N[C@@H](CCCNC(=N)N)C(=O)N[C@@H](CCCNC(=N)N)C(=O)N[C@@H](CCCNC(=N)N)C(=O)N[C@@H](CCCNC(=N)N)C(=O)N[C@@H](CCCNC(=N)N)C(=O)N[C@@H](CCCNC(=N)N)C(=O)O` ({DAMPA}-EEEEEEGFLGRRRRRRRR-OH), the negative-log IC50 (pIC50) in series [1] was 4.00; in series [2], below 4.00.
For the compound `N=C(N)NCCC[C@H](NC(=O)[C@H](CCCNC(=N)N)NC(=O)[C@H](CCCNC(=N)N)NC(=O)[C@H](CCCNC(=N)N)NC(=O)[C@H](CCCNC(=N)N)NC(=O)[C@H](CCCNC(=N)N)NC(=O)[C@H](CCCNC(=N)N)NC(=O)[C@@H](N)CCCNC(=N)N)C(=O)O`, the pIC50 is below 4.00 in series [1] and 4.00 in series [2]. In addition, the Flu intensity was 975 in series [5], below 8669 in series [6] and below 52928 in series [7]. In addition, the Drug uptake entry in series [3] was “Active”.
Consider `CN(Cc1cnc2nc(N)nc(N)c2n1)c1ccc(C(=O)N[C@@H](CCC(=O)O)C(=O)N[C@@H](CCC(=O)O)C(=O)N[C@@H](CCC(=O)O)C(=O)N[C@@H](CCC(=O)O)C(=O)N[C@@H](CCC(=O)O)C(=O)N[C@@H](CCC(=O)O)C(=O)N[C@@H](CCCNC(=N)N)C(=O)N[C@@H](CCCNC(=N)N)C(=O)N[C@@H](CCCNC(=N)N)C(=O)N[C@@H](CCCNC(=N)N)C(=O)N[C@@H](CCCNC(=N)N)C(=O)N[C@@H](CCCNC(=N)N)C(=O)N[C@@H](CCCNC(=N)N)C(=O)N[C@@H](CCCNC(=N)N)C(=O)O)cc1` ({DAMPA}-EEEEEERRRRRRRR-OH), for which the negative logarithm of the IC50 (pIC50) in series [1] and in series [2] was below 4.00 throughout. Besides, the Drug uptake result in series [3] and in series [4] was “Active” throughout.
For `CC(C)C[C@H](NC(=O)[C@H](Cc1ccccc1)NC(=O)CNC(=O)[C@H](CCC(=O)O)NC(=O)c1ccc(N(C)Cc2cnc3nc(N)nc(N)c3n2)cc1)C(=O)NCC(=O)N[C@@H](CCCNC(=N)N)C(=O)N[C@@H](CCCNC(=N)N)C(=O)N[C@@H](CCCNC(=N)N)C(=O)N[C@@H](CCCNC(=N)N)C(=O)N[C@@H](CCCNC(=N)N)C(=O)N[C@@H](CCCNC(=N)N)C(=O)N[C@@H](CCCNC(=N)N)C(=O)N[C@@H](CCCNC(=N)N)C(=O)O` ({DAMPA}-EGFLGRRRRRRRR-OH), the pIC50 in series [1] is 4.72; in series [2], 4.50.
